{"source": "patent US7531550B2", "about": "“Pseudobase benzo[c]phenanthridines with improved efficacy, stability, and safety” (Yale University, priority 2006, dated 2009)", "assay_type_in_all_cases": "physicochemical", "key": {"[1]": {"assay": "Conversion to chelerythrine in 0.1N HCL with 30% methanol", "details": "then 30% methanol added", "from_the_text": "(§1) The quaternary nitrogen imparts inherent chemical reactivity into these alkaloids. Nucleophiles can readily add to the adjacent carbon to create a neutral pseudobase. Water forms an unstable adduct with chelerythrine that can be seen in NMR studies. Additionally, 6-methoxy-5,6-dihydrochelerytherine and 6-ethoxy-5,6-dihydrochelerytherine (Artarine) have been reported as byproducts formed during the isolation of chelerythrine from plants utilizing methanol and ethanol extractions. The ability of this class of compounds to form pseudobases which can convert back to the quartenary […] is dependent on the solubility of the resulting pseudobase in biological media, the basicity of the leaving group adjacent to the position to become quartenary and the aromatic substitution pattern and nature of substituting agents (electron donating or withdrawing). Sanguinarine forms the hydroxyl psuedobase in pH 7.4 water to a higher extent than Chelerythrine. Under basic aqueous conditions, the hydroxypsuedobase of Cheleryturine will dimerize forming an ether bridge between two Chelerythrine molecules attached to the carbon adjacent to the ring nitrogen."}, "[2]": {"assay": "Conversion of chelerythrine pseudobases to parent chelerythrine in simulated gastric fluid (SGF)", "details": "for conversion to chelerythrine chloride (1H NMR analysis): 1 mg in 5 mL, 37° C.", "method": "Simulated Gastric Fluid (SGF): Sodium chloride (2 gm), 750 mL distilled water, and 7.0 mL of concentrated hydrochloric acid are added into a 1000 ml volumetric flask. The flask is swirled to mix and the volume brought to 1000 mL with distilled water. The pH should be approx. 1.2.\n(§2) General conversion procedure: The pseudobases are placed in SGF or SIF at about 0.2 mg/mL concentration and placed in 37° C. bath with gentle stirring. For those pseudobases which have low aqueous solubility, up to 20% co-solvent such as methanol is added to facilitate dissolution. The progress of the conversion is followed by visual observation (color change) and ^1H NMR analysis.\n6-tert-Butoxy-5,6-dihydrochelerythrine (1 mg) is placed in 5 mL of simulated gastric fluid in a glass vial. The vial is gently placed in 37° C. bath with gentle stirring. The solid pseudobase gradually dissolves to give a yellow solution which is the characteristic color of the parent chelerythrine chloride.\n6-Diethyl-(5,6-dihydrochelerythrine)-malonate (1 mg) is placed in 5 mL of simulated gastric fluid in a glass vial containing 10% methanol. The vial is gently placed in 37° C. bath with gentle stirring. The solid pseudobase gradually dissolves to give a yellow solution which is the characteristic color of the parent chelerythrine chloride."}, "[3]": {"assay": "Solubility of the chelerythrine ether dimer", "from_the_text": "as §1"}, "[4]": {"assay": "Conversion of chelerythrine pseudobases to parent chelerythrine in simulated intestinal fluid (SIF)", "details": "1 mg in 5 mL, 37° C., after 4 h", "method": "Simulated Intestinal Fluid (SIF): Monobasic potassium phosphate (6.8 gm) and sodium hydroxide (0.616 gm) are added into 250 ml of distilled water in a 1000 ml volumetric flask and swirled until dissolved. 700 ml distilled water is added and the pH checked. The pH is adjusted to pH 6.8+/−0.1 by adding either 0.2N sodium hydroxide or 0.2N hydrochloric acid and the volume is brought to 1000 ml.\nas §2\nN-(isopropyl)-5,6-dihydrochelerythrine-6-amine (1 mg) is placed in 5 mL of simulated intestinal fluid in a glass vial. The vial is gently placed in 37° C. bath with gentle stirring. The solid pseudobase gradually dissolved to give a yellow solution which is the characteristic color of the parent chelerythrine chloride."}}}
{"smiles": "COc1ccc2c(c1OC)C(OC1c3c(ccc(OC)c3OC)-c3ccc4cc5c(cc4c3N1C)OCO5)N(C)c1c-2ccc2cc3c(cc12)OCO3", "note": "(stereo not drawn) [compound 34, 6-(5,6-dihydrochelerytherin-6-yloxy)-5,6-dihydrochelerytherine]", "values": [{"measurement": "conversion to Chelerythrine", "setting": "[1]", "result": "occurs rapidly"}, {"measurement": "conversion to Chelerythrine in simulated gastric fluids", "setting": "[2]; simulated gastric fluids", "result": "does not convert readily"}, {"measurement": "solubility", "setting": "[3]", "result": "quite insoluble"}]}
{"smiles": "COc1ccc2c(c1OC)C(OC(C)(C)C)N(C)c1c-2ccc2cc3c(cc12)OCO3", "note": "(stereo not drawn) [compound 37, 6-tert-butoxy-5,6-dihydrochelerytherine]", "values": [{"measurement": "conversion to chelerythrine chloride (1H NMR analysis)", "setting": "[2]; simulated gastric fluid, after 2 h", "result": "complete conversion"}]}
{"smiles": "COc1ccc2c(c1OC)C(NC(C)C)N(C)c1c-2ccc2cc3c(cc12)OCO3", "note": "(stereo not drawn) [compound 43, N-(isopropyl)-5,6-dihydrochelerythrine-6-amine]", "values": [{"measurement": "conversion to chelerythrine chloride (1H NMR analysis)", "setting": "[4]", "result": "complete conversion"}]}
{"smiles": "CCOC(=O)C(C(=O)OCC)C1c2c(ccc(OC)c2OC)-c2ccc3cc4c(cc3c2N1C)OCO4", "note": "(stereo not drawn) [compound 50, 6-diethyl-(5,6-dihydrochelerythrine)-malonate]", "values": [{"measurement": "conversion to chelerythrine chloride (1H NMR analysis)", "setting": "[2]; simulated gastric fluid containing 10% methanol, after 16 h", "result": "complete conversion"}]}
